Values of other authors in EP2681209B1, “COMPOUNDS AND METHODS FOR THE TREATMENT OF PAIN AND OTHER DISORDERS” (Aquilus Pharmaceuticals, Inc, priority 2011, dated 2012).

Columns and labels:
MMP-9 = MMP-9 (Homo sapiens, UniProt P14780); details: background literature; cited from earlier work
TNF-alpha = details: background literature; cited from earlier work

Sequence of MMP-9 (P14780 94-707, species assumed): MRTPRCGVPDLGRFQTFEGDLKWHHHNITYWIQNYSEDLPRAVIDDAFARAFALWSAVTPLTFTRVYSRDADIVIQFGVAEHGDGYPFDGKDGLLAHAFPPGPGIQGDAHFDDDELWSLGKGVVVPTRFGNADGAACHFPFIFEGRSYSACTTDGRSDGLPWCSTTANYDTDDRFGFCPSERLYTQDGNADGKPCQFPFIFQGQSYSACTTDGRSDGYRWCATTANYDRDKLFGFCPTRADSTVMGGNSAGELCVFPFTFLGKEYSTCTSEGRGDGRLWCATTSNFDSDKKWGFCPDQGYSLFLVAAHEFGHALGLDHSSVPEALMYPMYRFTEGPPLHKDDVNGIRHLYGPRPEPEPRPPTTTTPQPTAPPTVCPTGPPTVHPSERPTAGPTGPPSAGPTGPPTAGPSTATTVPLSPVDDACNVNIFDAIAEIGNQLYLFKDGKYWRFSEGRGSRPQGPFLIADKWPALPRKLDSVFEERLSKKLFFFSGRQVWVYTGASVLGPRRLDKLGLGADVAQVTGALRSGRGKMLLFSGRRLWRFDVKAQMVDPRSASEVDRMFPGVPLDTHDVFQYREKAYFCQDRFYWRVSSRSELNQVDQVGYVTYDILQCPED

Q: For `CC(C)C[C@H](CC(=O)NO)C(=O)N[C@@H](Cc1ccc2ccccc2c1)C(=O)N[C@@H](C)C(N)=O` [TAPI-0], which IC50 (MMP-9) is on record?
A: 0.5 nM

Q: And the IC50 (TNF-alpha)?
A: ~100 nM
